The text below walks through data of ChEMBL document CHEMBL1141935, “Aminopiperidine indazoles as orally efficacious melanin concentrating hormone receptor-1 antagonists” (Bioorg Med Chem Lett, 2005).

Data set [1] deals with T1, Melanin-concentrating hormone receptor 1 (Homo sapiens, UniProt Q99705). Briefly: Binding affinity to human MCHr1 from neuronal IMR32 cells. In kind it is cell-based, IMR-32.
In data set [2] the target is T1, Melanin-concentrating hormone receptor 1. Briefly: Functional antagonism of MCH-mediated calcium release by FLIPR using human MCHr1 from neuronal IMR32 cells. It is filed as cell-based, IMR-32.
A short description of data set [3]: Half life in DIO mice plasma at 10 mg/kg, po. It is filed as ADME, organism-based. Details: dose 10 mg/kg, route oral. As to conditions: mouse.
Data set [4] is described as follows: AUC in DIO mice plasma at 10 mg/kg, po. In kind it is ADME, organism-based. The arrangement: dose 10 mg/kg, route oral. The note with it: mouse.
Data set [5] can be described thus: Cmax in DIO mice plasma at 10 mg/kg, po. In kind it is ADME, organism-based. The arrangement: dose 10 mg/kg, route oral. The note with it: mouse.
Data set [6] can be described thus: Cmax in DIO mice brain at 10 mg/kg, po. It is filed as ADME, organism-based. Details: dose 10 mg/kg, route oral. As to conditions: mouse.
The nature of data set [7]: Half life in DIO mice brain at 10 mg/kg, po. As to conditions: mouse. It is filed as ADME, organism-based. The arrangement: dose 10 mg/kg, route oral.
Data set [8] in a line: AUC in DIO mice brain at 10 mg/kg, po. It is filed as ADME, organism-based. Details: dose 10 mg/kg, route oral. The note with it: mouse.

A word on the IC50: it is the concentration that gives 50% inhibition. Broadly, the half-life is the time needed for the level to fall by half in the phase considered. Higher therefore signals slow loss. As usually defined, the AUC is concentration integrated over time. A high value points to high exposure. A word on the Cmax: it is the peak of the concentration-time curve.

T1 sequence (Q99705 whole entry): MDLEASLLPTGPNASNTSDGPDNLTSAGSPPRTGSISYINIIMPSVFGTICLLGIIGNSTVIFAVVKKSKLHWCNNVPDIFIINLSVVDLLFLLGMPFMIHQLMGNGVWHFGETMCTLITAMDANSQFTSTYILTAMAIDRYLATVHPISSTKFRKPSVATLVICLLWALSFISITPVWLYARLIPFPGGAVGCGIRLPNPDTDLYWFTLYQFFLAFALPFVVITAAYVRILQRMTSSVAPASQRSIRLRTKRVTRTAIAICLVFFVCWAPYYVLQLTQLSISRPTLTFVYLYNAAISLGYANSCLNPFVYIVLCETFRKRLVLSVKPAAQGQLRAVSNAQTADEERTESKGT

For `Cc1ccc2[nH]nc(NC3CCN(Cc4ccc5c(c4)OCO5)CC3)c2c1`, the IC50 in data set [1] came out at 110 nM; in data set [2] it was 1060 nM.
For `N#Cc1ccc2[nH]nc(NC3CCN(Cc4ccc5c(c4)OCO5)CC3)c2c1` the same measures were 220 nM and 3400 nM.
As for `c1ccc2c(NC3CCN(Cc4ccc5c(c4)OCO5)CC3)[nH]nc2c1`, the IC50 in data set [1] is 440 nM; in data set [2], > 10000 nM.
The matching figures for `Clc1ccc2[nH]nc(NC3CCN(Cc4ccc5ccccc5c4)CC3)c2c1`: 40 nM and 1820 nM.
Take `Clc1ccc2[nH]nc(NC3CCN(Cc4ccc5c(c4)OCCO5)CC3)c2c1`: the results for the IC50 in data set [1] and in data set [2] were 70 nM and 1890 nM, respectively.
`Cc1ccc(CN2CCC(Nc3[nH]nc4ccc(Cl)cc34)CC2)cc1C`: the IC50 in data set [1] was 100 nM; in data set [2] it was 1380 nM.
Consider `COc1ccc2c(c1)c(NC1CCN(Cc3ccc4c(c3)OCO4)CC1)nn2C`, for which the IC50 in data set [1] worked out at 30 nM; in data set [2], 190 nM.
For `O=[N+]([O-])c1ccc2[nH]nc(NC3CCN(Cc4ccc5c(c4)OCCO5)CC3)c2c1` the same measures were 30 nM and 520 nM.
For the compound `O=C(CN1CCOCC1)n1nc(NC2CCN(Cc3ccc4c(c3)OCO4)CC2)c2cc(Cl)ccc21`, the IC50 amounted to 20 nM in data set [1] and 1140 nM in data set [2].
On to `Clc1ccc2c(c1)c(NC1CCN(Cc3ccc4ccccc4c3)CC1)nn2Cc1ccccn1`, for which the IC50 in data set [1] amounted to 20 nM; in data set [2], 640 nM.
For `O=C(c1cscn1)n1nc(NC2CCN(Cc3ccc4c(c3)OCO4)CC2)c2cc(Cl)ccc21`, in data set [3], the half-life was 1 h. Further, the IC50 is 20 nM in data set [1] and 2540 nM in data set [2]. In data set [4], this compound showed an AUC of 400 ng·h/mL. In data set [5], this compound returned a Cmax of 271 ng/mL.
For `Clc1ccc2c(c1)c(NC1CCN(Cc3ccc4c(c3)OCO4)CC1)nn2Cc1ccccn1`, the IC50 in data set [1] was found to be 9 nM; in data set [2] it was 550 nM.
For the compound `Clc1ccc2[nH]nc(NC3CCN(Cc4ccccc4)CC3)c2c1`, the IC50 is 850 nM in data set [1] and > 10000 nM in data set [2].
On to `COc1ccc2[nH]nc(NC3CCN(Cc4ccc5c[nH]nc5c4)CC3)c2c1`, for which the figures for the IC50 in data set [1] and in data set [2] were 50 nM and 380 nM, respectively.
For `Clc1ccc2[nH]nc(NC3CCN(Cc4ccc5c(c4)OCO5)CC3)c2c1`, the half-life in data set [3] is 3.1 h; in data set [7], 2.9 h. The IC50 in data set [1] came to 20 nM; in data set [2], 260 nM. Further, the AUC in data set [4] is 8760 ng·h/mL; in data set [8], 59100 ng·h/mL. For the same compound, the highest concentration (Cmax) in data set [5] was 1880 ng/mL; in data set [6], 12100 ng/mL.
Regarding `COc1ccc(CN2CCC(Nc3[nH]nc4ccc(Cl)cc34)CC2)c(F)c1`, the values for the IC50 in data set [1] and in data set [2] were 240 nM and 5200 nM, respectively.
Take `O=[N+]([O-])c1ccc2c(c1)c(NC1CCN(Cc3ccc4c(c3)OCO4)CC1)nn2Cc1ccccc1`: the IC50 in data set [1] came to 5 nM; in data set [2], 350 nM.
`COc1ccc2[nH]nc(NC3CCN(Cc4ccc5c(c4)OCO5)CC3)c2c1`: the results for the half-life in data set [3] and in data set [7] were 3.9 h and 4.9 h, respectively. The IC50 in data set [1] was determined as 8 nM; in data set [2] it was 60 nM. The AUC in data set [4] was determined as 7630 ng·h/mL; in data set [8], 28500 ng·h/mL. Also, the results for the Cmax in data set [5] and in data set [6] were 1410 ng/mL and 6040 ng/mL, respectively.
Regarding `FC(F)(F)c1ccc2[nH]nc(NC3CCN(Cc4ccc5c(c4)OCO5)CC3)c2c1`, the 50% inhibitory concentration (IC50) in data set [1] was > 2000 nM; in data set [2], > 10000 nM.
For `Clc1ccc2[nH]nc(NC3CCN(Cc4ccc5nsnc5c4)CC3)c2c1` the same measures were 50 nM and 4910 nM.
In turn, `O=C(c1cccnc1)n1nc(NC2CCN(Cc3ccc4c(c3)OCO4)CC2)c2cc(Cl)ccc21` showed a half-life in data set [3] of 2.3 h. The values for the IC50 in data set [1] and in data set [2] were 20 nM and 930 nM, respectively. Moreover, the AUC in data set [4] was 164 ng·h/mL. The same compound came in with a Cmax in data set [5] of 63 ng/mL.
As for `Clc1ccc2c(c1)c(NC1CCN(Cc3ccc4c(c3)OCO4)CC1)nn2Cc1ccncc1`, the IC50 amounted to 7 nM in data set [1] and 560 nM in data set [2].
For `Clc1ccc(CN2CCC(Nc3[nH]nc4ccc(Cl)cc34)CC2)cc1` the same measures were 200 nM and 6200 nM.
The matching figures for `COc1cccc2[nH]nc(NC3CCN(Cc4ccc5c(c4)OCO5)CC3)c12`: 330 nM and > 10000 nM.
The matching figures for `O=C(C1CC1)n1nc(NC2CCN(Cc3ccc4c(c3)OCO4)CC2)c2cc(Cl)ccc21`: 40 nM and > 10000 nM.
Consider `Clc1ccc2c(c1)c(NC1CCN(Cc3ccc4c(c3)OCO4)CC1)nn2-c1ccccc1`, for which the IC50 was 50 nM in data set [1] and > 10000 nM in data set [2].
As for `Clc1ccc2c(c1)c(NC1CCN(Cc3ccc4c(c3)OCO4)CC1)nn2Cc1ccccc1`, the IC50 was determined as 40 nM in data set [1] and 5230 nM in data set [2].
For the compound `O=[N+]([O-])c1ccc2[nH]nc(NC3CCN(Cc4ccc5c(c4)OCO5)CC3)c2c1`, the values for the half-life in data set [3] and in data set [7] were 3.3 h and 4 h, respectively. Also, the IC50 in data set [1] is 6 nM; in data set [2] it was 70 nM. Moreover, the results for the AUC in data set [4] and in data set [8] were 14400 ng·h/mL and 22800 ng·h/mL, respectively. In addition, the highest concentration (Cmax) in data set [5] came to 1520 ng/mL; in data set [6], 3080 ng/mL.
Consider `COc1cccc(CN2CCC(Nc3[nH]nc4ccc(Cl)cc34)CC2)c1`, for which the IC50 in data set [1] is 150 nM; in data set [2] it was 4500 nM.
As for `Clc1ccc2c(c1)c(NC1CCN(Cc3ccc4c(c3)OCO4)CC1)nn2Cc1cccnc1`, the values for the half-life in data set [3] and in data set [7] were 4.7 h and 6 h, respectively. Moreover, the IC50 worked out at 20 nM in data set [1] and 290 nM in data set [2]. Besides, the AUC in data set [4] stood at 11900 ng·h/mL; in data set [8], 5340 ng·h/mL. Also, the Cmax in data set [5] was determined as 1690 ng/mL; in data set [6] it was 758 ng/mL.
